Calls of active or inactive are those of the source.
Experiments:
[1] = biological target: MAP kinase-activated protein kinase 2 (Homo sapiens, UniProt P49137); type: functional;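 also: measured as one member of a kinome-wide kinase panel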
[2] = biological target: Serine/threonine-protein kinase PLK1 (Homo sapiens, UniProt P53350); type: functional;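 also: PLK1 measured as one member of a kinome-wide profiling panel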
[3] = biological target: Serine/threonine-protein kinase pim-1 (Homo sapiens, UniProt P11309); type: functional
Sequence of Serine/threonine-protein kinase pim-1 (P11309 whole entry): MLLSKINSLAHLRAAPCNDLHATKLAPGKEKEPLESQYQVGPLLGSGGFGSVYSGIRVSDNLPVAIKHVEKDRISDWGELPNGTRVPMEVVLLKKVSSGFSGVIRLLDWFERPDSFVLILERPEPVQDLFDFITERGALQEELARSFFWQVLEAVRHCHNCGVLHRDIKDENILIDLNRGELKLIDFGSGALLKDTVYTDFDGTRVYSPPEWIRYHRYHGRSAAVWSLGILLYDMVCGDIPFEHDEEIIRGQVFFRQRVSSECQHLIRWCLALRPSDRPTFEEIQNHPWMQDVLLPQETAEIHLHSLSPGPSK

[4] = biological target: Cyclin-dependent kinase 1 (Homo sapiens, UniProt P06493); type: functional;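 also: Kinome-wide panel profiling, with the target listed as panel member CDC2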
[5] = biological target: Serine/threonine-protein kinase Chk1 (Homo sapiens, UniProt O14757); type: functional;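 also: measured as one member of a kinome-wide kinase profiling panel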
Sequence of Serine/threonine-protein kinase Chk1 (O14757 whole entry): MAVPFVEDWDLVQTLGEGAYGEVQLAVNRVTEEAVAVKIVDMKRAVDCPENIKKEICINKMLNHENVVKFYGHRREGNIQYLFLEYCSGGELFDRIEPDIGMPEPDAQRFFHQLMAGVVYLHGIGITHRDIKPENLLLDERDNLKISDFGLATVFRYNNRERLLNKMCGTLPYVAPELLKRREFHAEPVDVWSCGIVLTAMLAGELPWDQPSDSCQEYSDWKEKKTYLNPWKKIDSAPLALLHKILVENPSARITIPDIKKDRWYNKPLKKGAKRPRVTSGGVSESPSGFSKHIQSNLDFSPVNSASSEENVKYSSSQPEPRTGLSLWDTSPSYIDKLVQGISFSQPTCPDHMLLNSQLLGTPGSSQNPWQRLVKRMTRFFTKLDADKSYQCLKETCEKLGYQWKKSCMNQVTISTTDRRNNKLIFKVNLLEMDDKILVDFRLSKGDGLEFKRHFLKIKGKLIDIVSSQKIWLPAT

[6] = biological target: Protein kinase C zeta type (Homo sapiens, UniProt Q05513); type: functional;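 also: measured as one member of a broad kinase profiling panel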
[7] = biological target: 5'-AMP-activated protein kinase catalytic subunit alpha-1 (Homo sapiens, UniProt Q13131); type: functional
[8] = biological target: RAC-gamma serine/threonine-protein kinase (Homo sapiens, UniProt Q9Y243); type: functional
[9] = biological target: Serine/threonine-protein kinase PLK3 (Homo sapiens, UniProt Q9H4B4); type: functional
[10] = biological target: Protein kinase C gamma type (Homo sapiens, UniProt P05129); type: functional
[11] = biological target: Casein kinase II subunit alpha (Homo sapiens, UniProt P68400); type: functional
[12] = biological target: Serine/threonine-protein kinase Chk2 (Homo sapiens, UniProt O96017); type: functional;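 also: CHEK2 entry within a kinome-wide screening panel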
Ephrin type-A receptor 2 = Ephrin type-A receptor 2 (Homo sapiens, UniProt P29317); type: functional;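 also: EPHA2 tested as one member of a kinome-wide kinase panel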
[13] = biological target: Cyclin-dependent kinase 2 (Homo sapiens, UniProt P24941); type: functional;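 also: CDK2 measured as one member of a broad kinome profiling panel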
[14] = biological target: Serine/threonine-protein kinase MRCK alpha (Homo sapiens, UniProt Q5VT25); type: functional
[15] = biological target: Protein kinase C delta type (Homo sapiens, UniProt Q05655); type: functional
[16] = biological target: RAC-alpha serine/threonine-protein kinase (Homo sapiens, UniProt P31749); type: functional;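 also: AKT1 affinity measured as one member of a kinome-wide kinase profiling panel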
Sequence of RAC-alpha serine/threonine-protein kinase (P31749 whole entry): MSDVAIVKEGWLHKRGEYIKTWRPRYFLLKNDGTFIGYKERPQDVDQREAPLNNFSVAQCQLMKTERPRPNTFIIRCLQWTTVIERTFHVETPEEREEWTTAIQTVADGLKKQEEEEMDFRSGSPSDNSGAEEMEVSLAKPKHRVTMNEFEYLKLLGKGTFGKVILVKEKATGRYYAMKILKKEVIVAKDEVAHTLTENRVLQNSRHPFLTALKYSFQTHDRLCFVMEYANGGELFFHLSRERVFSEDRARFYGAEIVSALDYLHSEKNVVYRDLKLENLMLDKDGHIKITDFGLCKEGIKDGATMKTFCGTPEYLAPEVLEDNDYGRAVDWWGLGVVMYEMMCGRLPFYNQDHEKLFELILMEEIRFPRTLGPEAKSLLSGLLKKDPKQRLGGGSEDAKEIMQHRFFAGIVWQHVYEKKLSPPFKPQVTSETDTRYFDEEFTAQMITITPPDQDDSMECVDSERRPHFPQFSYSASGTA

[17] = biological target: T1, ATP-dependent translocase ABCB1 (Homo sapiens, UniProt P08183); assay: P-gp JC-1 efflux blockade concentration-response – Jurkat-DNR cells, flow cytometry, set 2, dose response (AID 504569); type: functional; conditions: read-out: EC50_MICROM_;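 also: potency of pump inhibitors that raise cellular JC-1 green fluorescence up to the nicardipine level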
T1 sequence (P08183 whole entry): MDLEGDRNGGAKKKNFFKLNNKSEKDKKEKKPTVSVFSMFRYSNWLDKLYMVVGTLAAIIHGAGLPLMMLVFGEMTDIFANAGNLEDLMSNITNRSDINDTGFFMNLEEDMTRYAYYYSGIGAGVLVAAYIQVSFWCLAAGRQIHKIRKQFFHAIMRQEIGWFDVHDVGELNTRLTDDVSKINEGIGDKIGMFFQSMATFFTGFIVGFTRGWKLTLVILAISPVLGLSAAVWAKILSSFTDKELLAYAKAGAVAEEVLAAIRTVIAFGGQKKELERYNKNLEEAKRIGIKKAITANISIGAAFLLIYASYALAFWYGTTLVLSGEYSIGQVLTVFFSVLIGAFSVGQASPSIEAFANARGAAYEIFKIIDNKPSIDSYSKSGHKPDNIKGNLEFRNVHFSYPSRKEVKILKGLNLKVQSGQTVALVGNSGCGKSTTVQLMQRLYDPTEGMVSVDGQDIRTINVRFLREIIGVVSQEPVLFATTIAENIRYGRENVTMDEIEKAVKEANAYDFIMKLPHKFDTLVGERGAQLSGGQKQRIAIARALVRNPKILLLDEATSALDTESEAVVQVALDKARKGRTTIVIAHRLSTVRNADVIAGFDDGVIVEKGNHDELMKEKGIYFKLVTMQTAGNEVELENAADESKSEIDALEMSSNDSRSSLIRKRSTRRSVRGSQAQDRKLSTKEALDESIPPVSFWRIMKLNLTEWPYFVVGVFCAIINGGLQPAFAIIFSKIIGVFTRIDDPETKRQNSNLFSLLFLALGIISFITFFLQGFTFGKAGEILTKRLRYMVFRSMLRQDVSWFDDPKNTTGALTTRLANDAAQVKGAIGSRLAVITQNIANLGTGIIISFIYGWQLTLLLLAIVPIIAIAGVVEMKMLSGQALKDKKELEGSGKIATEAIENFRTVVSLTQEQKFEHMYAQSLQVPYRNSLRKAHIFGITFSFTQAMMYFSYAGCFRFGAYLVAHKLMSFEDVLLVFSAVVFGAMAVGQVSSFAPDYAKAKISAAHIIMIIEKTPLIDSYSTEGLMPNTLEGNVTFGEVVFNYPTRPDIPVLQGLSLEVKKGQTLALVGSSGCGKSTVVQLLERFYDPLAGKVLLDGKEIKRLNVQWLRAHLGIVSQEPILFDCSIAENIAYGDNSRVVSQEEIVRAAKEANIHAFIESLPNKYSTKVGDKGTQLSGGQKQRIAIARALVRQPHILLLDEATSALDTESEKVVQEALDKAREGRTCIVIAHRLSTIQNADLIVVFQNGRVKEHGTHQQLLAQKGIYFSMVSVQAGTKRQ

[18] = biological target: T1, ATP-dependent translocase ABCB1; assay: inhibition of BCRP-mediated JC-1 efflux – Ig-MXP3 cells, flow cytometry, set 2, dose response (AID 504566); type: functional; conditions: read-out: EC50_MICROM_;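 also: flow cytometry median green fluorescence of retained JC-1 dye; potency of efflux pump inhibition measured as rising substrate retention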
[19] = biological target: Dual specificity protein phosphatase 3 (Homo sapiens, UniProt P51452); assay: VHR phosphatase inhibition, dose response, selectivity assay for STEP inhibitor project, biochemical (AID 602374); type: functional; conditions: read-out: IC50_Mean
[20] = biological target: Tyrosine-protein phosphatase non-receptor type 5 (Homo sapiens, UniProt P54829); assay: PTPN5 enzyme inhibition – biochemical, fluorescence intensity, uHTS hits, confirmation (AID 602372); type: functional; conditions: read-out: IC50_Mean
Sequence of Tyrosine-protein phosphatase non-receptor type 5 (P54829 whole entry): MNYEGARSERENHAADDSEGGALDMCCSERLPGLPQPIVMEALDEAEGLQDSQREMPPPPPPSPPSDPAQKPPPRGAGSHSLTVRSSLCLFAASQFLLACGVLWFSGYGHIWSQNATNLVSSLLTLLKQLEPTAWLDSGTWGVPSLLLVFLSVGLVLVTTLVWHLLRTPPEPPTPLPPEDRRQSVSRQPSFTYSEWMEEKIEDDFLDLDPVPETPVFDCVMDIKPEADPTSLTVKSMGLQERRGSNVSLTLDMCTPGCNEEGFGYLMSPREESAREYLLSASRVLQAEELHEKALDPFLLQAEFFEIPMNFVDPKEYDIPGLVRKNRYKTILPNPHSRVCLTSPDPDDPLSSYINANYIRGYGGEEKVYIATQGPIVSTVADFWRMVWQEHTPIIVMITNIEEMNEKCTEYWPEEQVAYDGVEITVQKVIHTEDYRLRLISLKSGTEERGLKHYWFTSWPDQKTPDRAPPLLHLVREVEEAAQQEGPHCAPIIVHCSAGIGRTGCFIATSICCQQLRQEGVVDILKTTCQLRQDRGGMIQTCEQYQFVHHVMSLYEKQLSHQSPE

Genome polyprotein = Genome polyprotein (dengue virus type 2, UniProt P29990); assay: flavivirus cap methylation enzyme inhibition – biochemical, confirmation dose response, primary screen (AID 588689); type: functional
[21] = biological target: T2, Long-chain-fatty-acid--AMP ligase FadD28 (Mycobacterium tuberculosis, UniProt P9WQ59); assay: Fluorescence polarization aasay to screen for inhibitors that compete for the binding of FadD28 to a bisubstrate Measured in Biochemical System Using Plate Reader - 2147-01_Inhibitor_Dose_CherryPick_Activity.; type: functional, Mycobacterium tuberculosis H37Rv
T2 sequence (P9WQ59 whole entry): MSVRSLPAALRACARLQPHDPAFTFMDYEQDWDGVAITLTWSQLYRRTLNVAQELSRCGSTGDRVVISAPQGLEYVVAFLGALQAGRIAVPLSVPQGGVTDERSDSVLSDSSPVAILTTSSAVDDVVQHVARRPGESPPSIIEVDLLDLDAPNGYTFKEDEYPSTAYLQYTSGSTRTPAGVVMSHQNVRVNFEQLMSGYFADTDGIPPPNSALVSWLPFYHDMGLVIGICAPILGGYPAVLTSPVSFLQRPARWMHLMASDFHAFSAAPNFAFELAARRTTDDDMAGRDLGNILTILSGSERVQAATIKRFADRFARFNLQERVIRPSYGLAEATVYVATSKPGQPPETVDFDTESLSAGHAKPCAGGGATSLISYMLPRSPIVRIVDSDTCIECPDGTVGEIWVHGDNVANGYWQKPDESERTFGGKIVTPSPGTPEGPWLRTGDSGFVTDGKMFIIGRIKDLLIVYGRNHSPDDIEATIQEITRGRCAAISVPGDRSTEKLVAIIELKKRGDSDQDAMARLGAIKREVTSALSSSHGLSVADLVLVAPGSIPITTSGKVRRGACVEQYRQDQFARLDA

[22] = biological target: Tyrosine-protein phosphatase non-receptor type 11 (Homo sapiens, UniProt Q06124); assay: PTPN11 enzyme inhibitors – biochemical, selectivity assay for STEP inhibitor project, dose response (AID 602367); type: functional; conditions: read-out: IC50_Mean
Sequence of Tyrosine-protein phosphatase non-receptor type 11 (Q06124 whole entry): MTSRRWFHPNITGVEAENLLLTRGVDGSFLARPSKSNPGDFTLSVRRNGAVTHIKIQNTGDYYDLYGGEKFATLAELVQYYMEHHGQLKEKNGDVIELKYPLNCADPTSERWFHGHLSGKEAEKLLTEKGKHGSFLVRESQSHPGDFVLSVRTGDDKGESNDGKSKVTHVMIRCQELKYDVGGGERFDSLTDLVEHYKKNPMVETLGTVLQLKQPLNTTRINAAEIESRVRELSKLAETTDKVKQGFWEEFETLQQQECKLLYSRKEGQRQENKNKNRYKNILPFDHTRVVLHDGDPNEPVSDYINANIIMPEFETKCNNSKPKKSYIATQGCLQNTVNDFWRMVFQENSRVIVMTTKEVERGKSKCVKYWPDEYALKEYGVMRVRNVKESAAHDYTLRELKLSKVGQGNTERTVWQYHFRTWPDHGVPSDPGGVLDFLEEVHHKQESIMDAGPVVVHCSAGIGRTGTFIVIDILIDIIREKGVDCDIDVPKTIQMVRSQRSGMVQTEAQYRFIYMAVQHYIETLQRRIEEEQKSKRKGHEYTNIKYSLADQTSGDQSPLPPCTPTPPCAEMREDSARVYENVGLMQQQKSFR

[23] = biological target: T3, Zinc finger protein mex-5 (Caenorhabditis elegans, UniProt Q9XUB2); assay: potency of MEX-5 RNA-binding blockers – biochemical, C. elegans, fluorescence polarization, dose response (AID 1960)
T3 sequence (Q9XUB2 whole entry): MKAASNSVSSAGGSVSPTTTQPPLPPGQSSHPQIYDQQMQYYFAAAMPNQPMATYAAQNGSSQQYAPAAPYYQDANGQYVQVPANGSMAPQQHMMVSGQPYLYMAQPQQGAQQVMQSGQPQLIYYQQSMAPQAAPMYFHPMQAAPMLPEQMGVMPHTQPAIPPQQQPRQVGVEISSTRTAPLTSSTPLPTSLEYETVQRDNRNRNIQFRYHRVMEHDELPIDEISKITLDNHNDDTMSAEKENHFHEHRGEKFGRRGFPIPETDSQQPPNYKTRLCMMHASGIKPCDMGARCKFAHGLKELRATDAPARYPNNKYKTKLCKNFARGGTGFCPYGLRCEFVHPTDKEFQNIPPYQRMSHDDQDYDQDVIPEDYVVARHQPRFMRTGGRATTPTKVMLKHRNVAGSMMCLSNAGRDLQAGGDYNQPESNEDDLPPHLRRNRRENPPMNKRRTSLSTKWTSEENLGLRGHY

[24] = biological target: T4, RNA-binding protein pos-1 (Caenorhabditis elegans, UniProt G5EF15); assay: disruptors of C. elegans POS-1 RNA interaction – biochemical, fluorescence polarization, dose response (AID 1964);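 also: purified POS-1 fused to maltose binding protein made in E. coli; potency of compounds blocking POS-1 binding to fluorescent RNA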
T4 sequence (G5EF15 whole entry): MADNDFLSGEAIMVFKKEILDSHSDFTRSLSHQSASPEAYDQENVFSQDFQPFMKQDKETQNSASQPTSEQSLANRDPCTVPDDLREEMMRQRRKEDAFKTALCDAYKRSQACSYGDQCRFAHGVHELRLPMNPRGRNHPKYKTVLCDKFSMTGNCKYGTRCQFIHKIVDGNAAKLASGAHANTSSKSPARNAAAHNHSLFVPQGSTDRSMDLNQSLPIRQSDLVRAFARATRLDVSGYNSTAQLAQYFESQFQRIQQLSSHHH

[25] = biological target: T5, Corticotropin-releasing factor receptor 2/Corticotropin-releasing factor-binding protein (Homo sapiens, UniProt P24387+Q13324); assay: Dose Response confirmation of uHTS hits for small molecule antagonists of the CRF-binding protein and CRF-R2 receptor complex.; type: functional; conditions: read-out: IC50_Mean
T5 sequence (Q13324 whole entry): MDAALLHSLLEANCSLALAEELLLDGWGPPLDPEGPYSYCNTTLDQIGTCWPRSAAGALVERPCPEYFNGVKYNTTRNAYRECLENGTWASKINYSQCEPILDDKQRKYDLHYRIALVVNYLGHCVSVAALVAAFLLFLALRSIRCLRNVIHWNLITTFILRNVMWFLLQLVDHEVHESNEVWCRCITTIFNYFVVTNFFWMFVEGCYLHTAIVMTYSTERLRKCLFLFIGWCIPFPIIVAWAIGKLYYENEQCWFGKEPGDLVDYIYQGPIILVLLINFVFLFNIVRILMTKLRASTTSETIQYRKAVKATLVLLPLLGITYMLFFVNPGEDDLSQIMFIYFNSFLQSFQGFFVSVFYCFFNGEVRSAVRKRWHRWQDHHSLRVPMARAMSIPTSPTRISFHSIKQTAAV
T5 sequence (P24387 whole entry): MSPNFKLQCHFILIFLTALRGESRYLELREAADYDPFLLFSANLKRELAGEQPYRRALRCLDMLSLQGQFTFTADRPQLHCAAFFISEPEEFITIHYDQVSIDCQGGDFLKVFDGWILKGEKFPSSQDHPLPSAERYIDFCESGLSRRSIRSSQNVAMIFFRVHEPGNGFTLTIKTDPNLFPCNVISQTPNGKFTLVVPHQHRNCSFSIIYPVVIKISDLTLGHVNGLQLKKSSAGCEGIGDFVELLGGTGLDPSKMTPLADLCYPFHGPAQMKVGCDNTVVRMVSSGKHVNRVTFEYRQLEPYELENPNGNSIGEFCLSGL

[26] = blockers of CRF-binding protein–CRF-R2 complex – cell-based, uHTS hits, 384-well, dose response (AID 651639); type: functional, Homo sapiens; conditions: read-out: IC50_Mean
[27] = biological target: T5, Corticotropin-releasing factor receptor 2/Corticotropin-releasing factor-binding protein; assay: activators of CRF receptor 2 with binding protein – uHTS hits, confirmation (AID 602473); type: functional; conditions: read-out: EC50_Mean
[28] = Fluorescence-based cell-based high throughput dose response assay for inhibitors of the interaction of nucleotide-binding oligomerization domain containing 2 (NOD2) and the receptor-interacting serine-threonine kinase 2 (RIPK2).; type: functional; conditions: Homo sapiens
Beta Lactamase = Beta Lactamase (Pseudomonas aeruginosa, UniProt Q932Y6); assay: BLA reporter interference, concentration series – BLA reporter cells, FRET fluorescence, artefact control for NOD2-RIPK2 interaction inhibitor project, dose response (AID 651552); type: functional, cell-based
Sequence of Beta Lactamase (Q932Y6 whole entry): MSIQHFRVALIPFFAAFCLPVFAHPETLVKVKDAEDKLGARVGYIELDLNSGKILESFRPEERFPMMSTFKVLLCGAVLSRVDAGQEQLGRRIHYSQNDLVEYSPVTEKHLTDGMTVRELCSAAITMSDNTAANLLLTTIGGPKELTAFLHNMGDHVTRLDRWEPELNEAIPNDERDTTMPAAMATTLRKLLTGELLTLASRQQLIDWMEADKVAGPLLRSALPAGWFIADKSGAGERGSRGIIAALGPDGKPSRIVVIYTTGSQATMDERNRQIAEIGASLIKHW

X-box-binding protein 1 = biological target: T6, X-box-binding protein 1 (Homo sapiens, UniProt P17861); type: functional, Cricetulus griseus;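 also: confirmatory dose-response counter-screen serving a CHOP assay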
T6 sequence (P17861 whole entry): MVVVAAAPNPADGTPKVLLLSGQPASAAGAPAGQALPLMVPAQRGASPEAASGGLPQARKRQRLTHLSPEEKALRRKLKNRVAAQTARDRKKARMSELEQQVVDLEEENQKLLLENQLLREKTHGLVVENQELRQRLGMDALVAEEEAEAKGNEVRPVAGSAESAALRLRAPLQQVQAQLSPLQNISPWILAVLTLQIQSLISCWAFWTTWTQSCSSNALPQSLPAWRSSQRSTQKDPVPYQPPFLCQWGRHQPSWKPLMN

[29] = biological target: Heat shock protein HSP 90-alpha (Homo sapiens, UniProt P07900); type: functional, organism-based
[30] = biological target: T7, Microphthalmia-associated transcription factor (Homo sapiens, UniProt O75030); assay: reducers of TRPM1 reporter luminescence, concentration series – cell-based, SK-MEL-5, cherry-picked, set 3, MITF inhibitor project, dose response (AID 493073); type: functional;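 also: SK-MEL-5 melanoma cells with luciferase driven by the MITF target TRPM1 promoter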
T7 sequence (O75030 whole entry): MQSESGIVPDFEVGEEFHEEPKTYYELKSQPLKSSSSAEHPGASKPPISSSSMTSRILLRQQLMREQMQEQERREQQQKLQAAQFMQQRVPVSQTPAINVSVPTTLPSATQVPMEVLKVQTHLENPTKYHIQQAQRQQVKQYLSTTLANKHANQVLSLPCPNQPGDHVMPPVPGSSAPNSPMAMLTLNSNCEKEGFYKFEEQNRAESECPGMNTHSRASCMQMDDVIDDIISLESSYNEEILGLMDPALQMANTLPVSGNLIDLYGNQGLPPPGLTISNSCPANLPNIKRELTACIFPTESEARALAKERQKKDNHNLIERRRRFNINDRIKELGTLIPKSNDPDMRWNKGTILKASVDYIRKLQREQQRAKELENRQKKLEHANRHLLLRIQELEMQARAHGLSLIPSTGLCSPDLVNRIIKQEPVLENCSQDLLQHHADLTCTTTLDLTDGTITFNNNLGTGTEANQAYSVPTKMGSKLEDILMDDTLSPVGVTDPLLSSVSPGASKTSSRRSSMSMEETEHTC

[31] = biological target: Photoreceptor-specific nuclear receptor (Homo sapiens, UniProt Q9Y5X4); type: functional, cell-based;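 also: CHO-S cells with Gal4-NCOR and VP16-NR2E3 two-hybrid luciferase reporter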
Sequence of Photoreceptor-specific nuclear receptor (Q9Y5X4 whole entry, the tested form may be a part): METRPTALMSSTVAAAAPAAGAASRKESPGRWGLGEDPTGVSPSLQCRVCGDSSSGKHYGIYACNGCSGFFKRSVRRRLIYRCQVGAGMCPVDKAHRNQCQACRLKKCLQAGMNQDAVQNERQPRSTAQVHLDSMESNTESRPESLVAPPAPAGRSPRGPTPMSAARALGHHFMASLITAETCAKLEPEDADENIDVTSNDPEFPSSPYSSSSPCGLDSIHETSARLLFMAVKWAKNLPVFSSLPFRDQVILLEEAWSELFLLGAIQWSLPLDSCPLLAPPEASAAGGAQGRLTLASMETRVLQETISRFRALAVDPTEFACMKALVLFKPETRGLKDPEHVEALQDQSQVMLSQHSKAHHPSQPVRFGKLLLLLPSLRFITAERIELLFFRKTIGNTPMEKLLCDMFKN

Steroidogenic factor 1 = Steroidogenic factor 1 (Homo sapiens, UniProt Q13285); assay: Counterscreen for inverse agonists of the liver receptor homolog-1 (LRH-1; NR5A2): Luminescence-based cell-based high throughput dose response assay to identify inverse agonists of the Steroidogenic Factor 1 Nuclear Receptor (SF1; NR5A1).; type: functional
Sequence of Steroidogenic factor 1 (Q13285 whole entry): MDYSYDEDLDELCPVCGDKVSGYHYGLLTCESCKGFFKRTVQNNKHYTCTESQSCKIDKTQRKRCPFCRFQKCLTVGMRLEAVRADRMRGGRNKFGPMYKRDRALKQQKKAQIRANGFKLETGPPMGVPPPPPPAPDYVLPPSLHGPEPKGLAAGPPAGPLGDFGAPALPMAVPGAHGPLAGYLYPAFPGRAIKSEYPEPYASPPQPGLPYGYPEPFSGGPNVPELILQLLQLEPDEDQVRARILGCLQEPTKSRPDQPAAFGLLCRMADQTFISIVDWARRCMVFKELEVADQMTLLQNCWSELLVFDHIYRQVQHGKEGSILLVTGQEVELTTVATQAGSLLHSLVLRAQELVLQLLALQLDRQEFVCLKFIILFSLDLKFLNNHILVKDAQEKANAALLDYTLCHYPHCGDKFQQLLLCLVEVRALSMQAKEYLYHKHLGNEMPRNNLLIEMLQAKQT

[32] = nonselective StAR promoter luciferase inhibitors – cell-based, luminescence, luciferase reporter, counter-screen for LRH-1 inverse agonist project, dose response (AID 651969); type: functional
[33] = biological target: Nuclear receptor subfamily 5 group A member 2 (Homo sapiens, UniProt O00482); type: functional, cell-based;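 also: HEK293T cells transfected with LRH-1 and a StAR promoter luciferase reporter; potency for inhibitors that lower LRH-1 driven reporter light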

Cn1ncc2c1CCCC2=O
Ki [1]: > 20 µM (inactive)
Ki [2]: 10 µM (active)
Ki [3]: > 25.1 µM (inactive)
Ki [4]: > 20 µM (inactive)
Ki [5]: > 20 µM (inactive)
Ki [6]: > 20 µM (inactive)
Ki [7]: > 25.1 µM (inactive)
Ki [8]: > 25.1 µM (inactive)
Ki [9]: 2 µM (active)
Ki [10]: > 20 µM (inactive)
Ki [11]: 15.8 µM (active)
Ki [12]: > 25.1 µM (inactive)
Ki (Ephrin type-A receptor 2): > 20 µM (inactive)
Ki [13]: > 20 µM (inactive)
Ki [14]: > 25.1 µM (inactive)
Ki [15]: > 20 µM (inactive)
Ki [16]: > 20 µM (inactive)

COc1ccc(-c2cc3nc(-c4ccccc4)cc(N4CCN(C(=O)c5ccco5)CC4)n3n2)cc1
EC50 [17]: 3.35 µM (active)
EC50 [18]: 1.28 µM (active)

COc1cc(/C=C2/C(=O)NN(c3cccc(C)c3)C2=O)cc([N+](=O)[O-])c1O
IC50 [19]: 4.11 µM (active)
IC50 [20]: 25.5 µM (inactive)
IC50 (Genome polyprotein): 51.5 µM (active)
AC50 [21]: 39.2 µM (active)
IC50 [22]: 5.63 µM (active)
EC50 [23]: 89.1 µM (active)
EC50 [24]: > 300 µM (not active)

N#Cc1c(C(F)(F)F)cc(-c2ccc(Cl)cc2)nc1O
IC50 [25]: 4.16 µM (active)
IC50 [26]: > 20 µM (inactive)
EC50 [27]: > 53 µM (inactive)

COc1ccc(C(=O)/C=C/C(=O)N(CC(=O)NC2CCCCC2)Cc2cccs2)c(O)c1
IC50 [28]: 4.66 µM (active)
IC50 (Beta Lactamase): 24.7 µM (inactive)
Absolute IC50 (XBP1) (X-box-binding protein 1): 10 µM
AC50 [29]: 2.98 µM (active)
AC50 [30]: 5.53 µM (active)

Oc1cc(C(F)(F)F)nc(SC/C=C/c2ccccc2)n1
IC50 [31]: 12.7 µM (inactive)

O=C(Nc1ccccc1)c1oc2ccccc2c1NC(=O)C1CC1
IC50 (Steroidogenic factor 1): 35.9 µM (inactive)
IC50 [32]: 35.9 µM (inactive)
IC50 [33]: 35.9 µM (inactive)
